Experimental data reported in patent publication US9109043B2 (Tokyo Institute of Technology, priority 2010, dated 2015).
Entries after “also recorded” stand apart in the source; their conditions may differ. Like-named read-outs stand apart in the source and are kept apart here.

Columns and labels:
[1] = biological target: T1, insulin secretion regulation factor (ATIS1) (Mus musculus, UniProt Q6P5E4); test: Release of radiolabelled ATIS1 from arginine-immobilized agarose by amino acids and sugars; format: binding; conditions: silver stained gel, FIG. 8A
T1 construct: made in house; host or cells: cell-free: TNT Quick coupled transcription/translation system (Promega)
T1 sequence (Q6P5E4 43-1551): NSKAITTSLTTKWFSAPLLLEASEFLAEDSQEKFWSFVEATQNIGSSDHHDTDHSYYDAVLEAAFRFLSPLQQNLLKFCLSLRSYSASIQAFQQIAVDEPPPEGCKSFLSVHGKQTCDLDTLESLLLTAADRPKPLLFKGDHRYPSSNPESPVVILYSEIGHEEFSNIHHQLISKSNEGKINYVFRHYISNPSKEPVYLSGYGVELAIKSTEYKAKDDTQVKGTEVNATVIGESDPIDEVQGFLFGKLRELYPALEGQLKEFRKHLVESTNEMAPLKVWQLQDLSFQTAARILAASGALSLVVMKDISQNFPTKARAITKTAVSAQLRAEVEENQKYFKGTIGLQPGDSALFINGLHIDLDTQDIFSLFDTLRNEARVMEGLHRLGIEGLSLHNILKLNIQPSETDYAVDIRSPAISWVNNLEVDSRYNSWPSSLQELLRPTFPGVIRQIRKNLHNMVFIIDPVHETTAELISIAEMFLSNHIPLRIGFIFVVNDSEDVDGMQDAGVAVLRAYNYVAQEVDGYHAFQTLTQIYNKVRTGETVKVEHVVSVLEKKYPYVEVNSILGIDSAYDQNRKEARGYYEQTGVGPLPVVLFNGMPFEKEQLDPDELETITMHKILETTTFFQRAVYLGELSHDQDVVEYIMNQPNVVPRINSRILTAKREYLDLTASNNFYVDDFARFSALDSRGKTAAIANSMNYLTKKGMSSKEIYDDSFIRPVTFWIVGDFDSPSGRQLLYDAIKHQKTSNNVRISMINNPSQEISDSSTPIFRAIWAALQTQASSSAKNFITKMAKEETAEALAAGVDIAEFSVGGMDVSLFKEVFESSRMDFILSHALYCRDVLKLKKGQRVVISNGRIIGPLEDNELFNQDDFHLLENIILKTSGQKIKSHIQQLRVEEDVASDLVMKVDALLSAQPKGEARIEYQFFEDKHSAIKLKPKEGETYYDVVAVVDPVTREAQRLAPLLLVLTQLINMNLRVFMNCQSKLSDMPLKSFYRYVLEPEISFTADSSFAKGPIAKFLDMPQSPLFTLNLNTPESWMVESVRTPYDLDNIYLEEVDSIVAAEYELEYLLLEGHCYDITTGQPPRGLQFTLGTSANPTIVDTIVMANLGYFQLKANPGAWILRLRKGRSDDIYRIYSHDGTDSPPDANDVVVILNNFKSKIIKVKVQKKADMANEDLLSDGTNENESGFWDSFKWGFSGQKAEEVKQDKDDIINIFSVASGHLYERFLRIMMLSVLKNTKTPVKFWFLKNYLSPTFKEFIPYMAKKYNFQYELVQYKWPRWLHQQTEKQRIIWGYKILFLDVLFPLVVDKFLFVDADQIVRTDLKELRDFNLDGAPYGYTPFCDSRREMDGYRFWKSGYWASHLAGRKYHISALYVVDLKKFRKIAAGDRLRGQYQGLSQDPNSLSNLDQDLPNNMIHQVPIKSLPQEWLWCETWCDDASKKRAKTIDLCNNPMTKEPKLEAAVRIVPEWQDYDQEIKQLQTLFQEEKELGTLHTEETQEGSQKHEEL

[2] = biological target: T2, insulin secretion regulation factor (Mus musculus, UniProt Q6P5E4); test: Competitive inhibition of radiolabelled arginine binding to insulin secretion regulation factor; set-up: made in house; host or cells: Escherichia coli; conditions: increasing concentration of cold competitor, FIG. 2B, FIG. 3A
Target sequence in this assay (Q6P5E4 43-1551): as above

[3] = tested on: transformed cultured cells secreting fluorescently labeled insulin; test: Fluorescence microscopy of transformed cultured cells secreting fluorescently labeled insulin; format: cell-based; conditions: arginine 10 mM, 10 and 60 seconds after administration and thereafter, data not shown
Protocol: Thus, transformed cultured cells were prepared so as to secrete fluorescently labeled insulin. Using the cells, it was possible to observe insulin secretion by arginine addition and temporal changes in the intracellular localization of insulin with a fluorescent microscope. […] This experimental system can also be applied to the screening of a candidate substance, other than arginine, that promotes insulin secretion.

[4] = biological target: T2, insulin secretion regulation factor; test: Disconnection of insulin from insulin secretion regulation factor by arginine; format: binding; set-up: made in house; host or cells: Escherichia coli; conditions: depending on amount of arginine added, FIG. 3C
Target sequence in this assay (Q6P5E4 43-1551): as above

[5] = biological target: T2, insulin secretion regulation factor; test: Partial protease digestion of radiolabelled insulin secretion regulation factor in presence of amino acid; format: binding; set-up: made in house; host or cells: cell-free: TNT Quick coupled transcription/translation system (Promega); conditions: 100 μM arginine, on ice 10 minutes, vs absence, phenylalanine or leucine
Target sequence in this assay (Q6P5E4 whole entry): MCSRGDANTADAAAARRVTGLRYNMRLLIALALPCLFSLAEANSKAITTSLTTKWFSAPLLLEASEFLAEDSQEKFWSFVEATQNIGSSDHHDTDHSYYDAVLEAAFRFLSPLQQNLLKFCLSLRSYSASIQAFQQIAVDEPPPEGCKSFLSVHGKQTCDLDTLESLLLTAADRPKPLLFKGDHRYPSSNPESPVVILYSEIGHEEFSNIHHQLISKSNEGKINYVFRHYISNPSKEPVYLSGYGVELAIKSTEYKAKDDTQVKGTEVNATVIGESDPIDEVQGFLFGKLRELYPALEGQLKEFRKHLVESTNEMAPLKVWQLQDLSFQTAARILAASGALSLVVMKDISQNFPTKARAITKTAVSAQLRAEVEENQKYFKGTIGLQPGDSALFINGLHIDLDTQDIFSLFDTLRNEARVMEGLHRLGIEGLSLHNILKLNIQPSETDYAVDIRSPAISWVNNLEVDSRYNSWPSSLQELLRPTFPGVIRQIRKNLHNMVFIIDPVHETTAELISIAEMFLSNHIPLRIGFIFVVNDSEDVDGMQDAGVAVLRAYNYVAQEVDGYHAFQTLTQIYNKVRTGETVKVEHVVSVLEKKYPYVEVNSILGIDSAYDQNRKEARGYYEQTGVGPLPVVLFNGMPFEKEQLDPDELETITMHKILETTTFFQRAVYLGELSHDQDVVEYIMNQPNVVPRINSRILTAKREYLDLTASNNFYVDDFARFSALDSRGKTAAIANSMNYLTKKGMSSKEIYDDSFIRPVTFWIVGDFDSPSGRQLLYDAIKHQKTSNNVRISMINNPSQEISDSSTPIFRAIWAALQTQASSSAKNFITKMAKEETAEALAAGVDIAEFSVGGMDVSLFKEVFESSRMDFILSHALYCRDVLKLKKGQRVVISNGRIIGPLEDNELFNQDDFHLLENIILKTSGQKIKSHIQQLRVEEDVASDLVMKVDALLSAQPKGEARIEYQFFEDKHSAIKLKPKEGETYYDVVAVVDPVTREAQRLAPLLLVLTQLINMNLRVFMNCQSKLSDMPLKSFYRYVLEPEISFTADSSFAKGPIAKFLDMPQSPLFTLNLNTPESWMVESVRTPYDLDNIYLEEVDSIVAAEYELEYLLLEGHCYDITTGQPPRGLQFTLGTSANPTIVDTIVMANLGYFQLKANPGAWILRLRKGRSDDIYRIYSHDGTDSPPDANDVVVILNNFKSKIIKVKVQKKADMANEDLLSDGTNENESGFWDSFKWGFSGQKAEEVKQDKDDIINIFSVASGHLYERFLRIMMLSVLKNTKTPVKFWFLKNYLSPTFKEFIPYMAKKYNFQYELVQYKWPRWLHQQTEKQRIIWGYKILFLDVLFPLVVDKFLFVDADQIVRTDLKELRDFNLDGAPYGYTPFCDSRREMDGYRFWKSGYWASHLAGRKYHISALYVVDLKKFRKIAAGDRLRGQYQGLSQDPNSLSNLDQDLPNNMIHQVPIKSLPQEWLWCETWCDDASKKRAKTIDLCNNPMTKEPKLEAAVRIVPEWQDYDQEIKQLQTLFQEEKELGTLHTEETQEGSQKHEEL

wild type NIT-1 cells = test: Arginine-induced insulin secretion by wild type NIT-1 cells (ELISA); format: cell-based, mouse; conditions: arginine 0.1-20 mM, 10 minutes, FIG. 4
[6] = biological target: T1, insulin secretion regulation factor (ATIS1); test: Release of radiolabelled ATIS1 from insulin-immobilized agarose by test substance; format: binding
[7] = tested on: NIT-1 cells in which insulin secretion regulation factor was forcibly expressed; test: Insulin secretion by NIT-1 cells with forced expression of insulin secretion regulation factor (ELISA); format: cell-based, mouse

N[C@@H](Cc1ccccc1)C(=O)O [Phenylalanine, phenylalanine]
interaction (binding) with insulin secretion regulation factor ATIS1 [1]: did not bind to ATIS1

N=C(N)NCCC[C@H](N)C(=O)O [arginine]
radiolabelled arginine disconnected from insulin secretion regulation factor [2]: the radiolabelled arginine that had been bound was disconnected from insulin secretion regulation factor; also recorded: the amount of disconnected radiolabelled arginine increased | intracellular localization and secretion of fluorescently labeled insulin [3]: being extracellularly secreted thereafter resulting in the disappearance of fluorescence | insulin disconnected from insulin secretion regulation factor [4]: the amount of disconnected insulin increases | resistance of insulin secretion regulation factor to chymotrypsin partial digestion [5]: significant resistance to chymotrypsin partial digestion | resistance of insulin secretion regulation factor to trypsin partial digestion ([5]; FIG. 2C): significant resistance to trypsin partial digestion | arginine-induced insulin secretion (wild type NIT-1 cells): depending on arginine concentration, insulin secretion is promoted | competition with insulin for insulin secretion regulation factor [6]: competes with insulin | amount of insulin secreted per unit time [7]: about 2 pg/cell/min | interaction (binding) with insulin secretion regulation factor ATIS1 [1]: interacted with the insulin secretion regulation factor

NC(=O)NCCC[C@H](N)C(=O)O [citrulline]
interaction (binding) with insulin secretion regulation factor ATIS1 [1]: did not exhibit the ATIS1 binding activity

CC(C)=CCc1cc(/C=C/C(=O)O)ccc1O [drupanin]
competition with insulin for insulin secretion regulation factor ([6]; autoradiography, FIG. 6B): competes with insulin | amount of insulin secreted per unit time ([7]; 10 mM substance, cultured 10 minutes, FIG. 6A): about 2 pg/cell/min

NCCCC[C@H](N)C(=O)O [lysine]
interaction (binding) with insulin secretion regulation factor ATIS1 [1]: interacted with the insulin secretion regulation factor

NCCC[C@H](N)C(=O)O [ornithine]
interaction (binding) with insulin secretion regulation factor ATIS1 [1]: interacted with the insulin secretion regulation factor
